From patent US12318452B2, “Degraders of WEE1 kinase” (DANA-FARBER CANCER INSTITUTE, INC., priority 2018, dated 2025)

Legend:
OVCAR8 cells = assay: Synergy experiment, CellTiter-Glo co-treatment for 72 hours; format: cell-based
[1] = tested on: MOLT4 cells (parental, wild type); assay: CellTiter-Glo cell viability, 72 hours; format: cell-based; conditions: 72-hr
Procedure: The indicated cell lines were plated in flat bottom 384-well plates (Corning® cat #3570). MOLT4 cells were plated at a density of 3,000 cells per well in 50 μL media, while OVCAR8, COV362, and Kuramochi cells were plated at a density of 750 cells per well in 50 μL media. Cells were treated the next day (except for MOLT4 cells, which were treated the same day as plating) with 0.1 μL of the indicated compounds in a four-fold dilution series using the Janus pinner. Cells were incubated with compounds for 72 hours at 37° C. 5% CO2. Anti-proliferative effects were then assessed by CellTiter-Glo® Luminescent Cell Viability Assay (Promega™ cat #G7570) according to the manufacturer's standards, measuring luminescence using an EnVision® plate-reader. IC50 values were determined using a non-linear regression curve fit in GraphPad Prism 8. N=4 biological replicates were used for each treatment condition.
MOLT4 cells were plated in a 384-well plate at 5,000 cells per well in 50 μL media (RPMI+10% FBS+1% Penn/Strep) and treated with 0.1 μL of the candidate compounds in four-fold dilution series using the Janus pinner. Cells were incubated with compounds for 72 hours at 37° C. 5% CO2. Anti-proliferative effects of these compounds were assessed 72 hours after compound addition using CellTiter-Glo® (Promega, cat #G7571). All proliferation assays were performed in biological quadruplicate. […] Effects upon cell viability for compound 13 in the MOLT4 WT cells are therefore likely driven in part by Wee1 inhibition, and in part by CRBN-mediated Wee1 degradation. […] Degradation of Wee1 with compound 21 was mediated by VHL.

Wee1 = Wee1 (Homo sapiens, UniProt P30291); assay: LanthaScreen FRET-based biochemical binding assay for Wee1; conditions: LanthaScreen Binding activity assay; average of two replicates ± SD
Chain of Wee1 (P30291 whole entry): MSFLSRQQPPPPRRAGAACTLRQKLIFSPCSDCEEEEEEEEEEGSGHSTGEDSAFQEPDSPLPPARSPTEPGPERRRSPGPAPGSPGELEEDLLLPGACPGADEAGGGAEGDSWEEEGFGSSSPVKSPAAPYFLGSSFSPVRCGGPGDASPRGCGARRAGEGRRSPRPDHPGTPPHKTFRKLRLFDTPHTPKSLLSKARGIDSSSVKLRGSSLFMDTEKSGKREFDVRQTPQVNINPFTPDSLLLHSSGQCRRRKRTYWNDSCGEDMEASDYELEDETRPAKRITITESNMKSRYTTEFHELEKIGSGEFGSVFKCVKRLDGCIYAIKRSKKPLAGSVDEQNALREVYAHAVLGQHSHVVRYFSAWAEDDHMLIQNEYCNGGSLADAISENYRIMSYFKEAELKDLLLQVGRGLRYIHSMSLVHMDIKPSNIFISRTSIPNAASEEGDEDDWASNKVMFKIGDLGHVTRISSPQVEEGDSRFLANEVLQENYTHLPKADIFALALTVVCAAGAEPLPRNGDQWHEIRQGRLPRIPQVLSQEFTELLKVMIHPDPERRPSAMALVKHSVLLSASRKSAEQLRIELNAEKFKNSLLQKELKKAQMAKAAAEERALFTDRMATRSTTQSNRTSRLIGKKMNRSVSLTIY
Procedure: (§1) LanthaScreen™ assays were conducted for Wee1 in a 10-point dose response as performed in the commercial assay service by Life Technologies™. Z′-LYTE™ assays were conducted for PLK1 as performed in the commercial assay service by Life Technologies™ in a 10-point dose response using Km ATP concentrations.

pCDK1 Y15 = assay: Downstream signalling immunoblot in MOLT4 cells (pCDK1 Y15, cleaved PARP, γH2Ax); format: cell-based; conditions: 1 μM, 24 hours, MOLT4 cells
Procedure: Whole cell lysates for immunoblotting were prepared by pelleting cells from each cell line at 4° C. (300 g) for 5 minutes. The resulting cell pellets were washed 1× with ice-cold PBS and then resuspended in RIPA lysis buffer (Sigma, cat #R0278) supplemented with protease and phosphatase inhibitor tablets (Roche cat #4906845001). Lysates were clarified at 14,000 rpm for 15 minutes at 4° C. prior to quantification by BCA assay (Pierce™, cat #23225). Whole cell lysates were loaded into Bolt 4-12% Bis-Tris Gels (Thermo Fisher, cat #NW04120BOX) and separated by electrophoreses at 95 V for 1.5 hours. The gels were transferred to a nitrocellulose membrane using the iBlot® Gel Transfer at P3 for 7 minutes (Thermo Fisher, cat #IB23001) and then blocked for 1 hour at room temperature in Odyssey® blocking buffer (LICOR® Biosciences, cat #927-50010). Membranes were probed using antibodies against the relevant proteins at 4° C. overnight in 20% Odyssey® Blocking Buffer in 1×TBST. Membranes were then washed three times with 1×TBST (at least 5 minutes per wash) followed by incubation with the IRDye® goat anti-mouse (LICOR®, cat #926-32210) or goat anti-rabbit (LICOR®, cat #926-32211) secondary antibody (diluted 1:10,000) in 20% Odyssey® Blocking Buffer in 1×TBST for 1 hour at room temperature. After three washes with 1×TBST (at least 5 minutes per wash), the immunoblots were visualized using the ODYSSEY® Infrared Imaging System (LICOR®).
MOLT4 cells were plated at 1.5 million cells per well in a 6-well plate, with 3 mL of media per well. Cells were then immediately treated with the indicated concentration of the indicated compound and incubated for the indicated amount of time. Cells were collected by transferring each well to a 15 mL conical, centrifuging (1000 rpm for 3 min), then washing the cell pellet 2× with cold PBS. Each cell pellet was then lysed in 100 μL of RIPA lysis buffer (+protease/phosphatase inhibitors). Samples were normalized and prepped in 4×LDS+10% β-mercaptoethanol and boiled for 5 min at 95° C. Lysates were probed for specified proteins by western blotting using the Bolt® system (Life Technologies™)
The effects of targeted Wee1 degradation on the cell cycle were evaluated. Wee1 is required for the temporal regulation of CDK1 at the G2/M cell-cycle checkpoint, and Wee1 loss therefore […] via activation of CDK1. Following loss of Wee1 activity, cells are expected to enter mitosis before completing DNA repair, ultimately resulting in excessive unrepaired DNA damage, mitotic catastrophe, and apoptosis (Beck et al., Mol. Cell Biol. 32:4226-4236 (2012)).

PLK1 = PLK1 (Homo sapiens, UniProt P53350); assay: Z′-LYTE kinase activity assay for PLK1; format: biochemical; design: purchased Life Technologies (Invitrogen) commercial assay service; conditions: Km ATP, average of two replicates ± SD
Chain of PLK1 (P53350 whole entry): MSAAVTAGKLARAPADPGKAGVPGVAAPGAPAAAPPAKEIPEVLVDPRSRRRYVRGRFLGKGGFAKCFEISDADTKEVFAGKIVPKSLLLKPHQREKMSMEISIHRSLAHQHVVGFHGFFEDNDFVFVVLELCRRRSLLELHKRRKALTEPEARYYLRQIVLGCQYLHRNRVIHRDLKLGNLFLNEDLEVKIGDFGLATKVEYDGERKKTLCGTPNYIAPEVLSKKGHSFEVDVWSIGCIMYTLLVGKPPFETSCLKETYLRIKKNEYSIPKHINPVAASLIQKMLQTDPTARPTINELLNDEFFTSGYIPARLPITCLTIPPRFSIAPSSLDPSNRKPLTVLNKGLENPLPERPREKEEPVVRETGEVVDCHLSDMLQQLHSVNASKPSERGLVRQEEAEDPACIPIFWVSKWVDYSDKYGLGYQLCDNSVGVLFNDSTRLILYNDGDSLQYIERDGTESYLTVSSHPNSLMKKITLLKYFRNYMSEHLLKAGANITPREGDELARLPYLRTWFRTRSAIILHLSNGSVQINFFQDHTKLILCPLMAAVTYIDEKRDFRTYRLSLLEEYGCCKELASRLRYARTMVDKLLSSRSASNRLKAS
Procedure: as §1
The selectivity of Wee1 degradation was then assessed by performing multiplexed mass spectrometry (MS)-based proteomics in MOLT4 cells treated with 100 nM of compound 13 for 2 hours (Donovan et al., Elife 7:e38430 (2018)).

IC50 (Wee1): > 10 µM
IC50 (PLK1): > 10 µM
Structure (SMILES): Nc1cccc2c1C(=O)N(C1CCC(=O)NC1=O)C2=O (stereo not drawn) [Pomalidomide, reference compound]
Synergy with AZD1775 (OVCAR8 cells; 72-hr co-treatment with AZD1775): not synergistic
Synergy with Olaparib (OVCAR8 cells; 72-hr co-treatment with Olaparib): not synergistic
Antiproliferative activity [1]: no detectable antiproliferative activity
Effect on phosphorylation of CDK1 Y15, apoptosis, DNA damage (pCDK1 Y15): did not affect phosphorylation of CDK1 Y15, apoptosis, or levels of DNA damage
